# Values of other authors in patent US11478494B2, “Methods and substances for prevention and treatment of neurodegenerative diseases” (Locus IP Company, LLC, priority 2017, dated 2022).
# *1 amine or outer side, *2 acyl side, *3 side chain or, on linkers, in order; H or OH if unused. Where a SMILES comes first, the peptide text is derived from it. Bridges are numbered along the chain shown (N, C = ends). [ ]: non-standard residue; d: D form. X1 = CC(C)CCCCCCCCC[C@H](CC(=O)[*:1])O[*:2]
# What was measured:
# [1] = surfactin administration
# [2] = oral administration
Compound,concentration without any significant toxic effects [1],oral dose administered without toxicity [2]
CC(C)CCCCCCCCC[C@@H]1CC(=O)N[C@@H](CCC(=O)O)C(=O)N[C@@H](CC(C)C)C(=O)N[C@H](CC(C)C)C(=O)N[C@@H](C(C)C)C(=O)N[C@@H](CC(=O)O)C(=O)N[C@H](CC(C)C)C(=O)N[C@@H](CC(C)C)C(=O)O1 [surfactin] (EL[dL]VD[dL]L; linker N-C via X1),≤ 25 µM,
sophorolipid [SLP],,≤ 5 grams/kg of body weight
